Data: ChEMBL document CHEMBL1201862, “PubChem BioAssay data set” (2004)
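Cells were grown in 96-well plates and exposed to each compound for 48 hours at five concentrations; endpoints were interpolated linearly between bracketing concentrations, or set to the highest concentration if not reached. Abbreviation: GI50, concentration required for 50% inhibition of growth.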 Active and inactive are the calls of the source. No stated cut-off is given here; in the data, active = GI50 up to about 1.1 µM and inactive = higher.

Legend:
Assay in all cases: growth of human tumour cells (NCI), 48 h
EKVX = tested on: EKVX
HOP-62 = tested on: HOP-62
HT-29 = tested on: HT-29
IGROV-1 = tested on: IGROV-1
LOX IMVI = tested on: LOX IMVI
MOLT-4 = tested on: MOLT-4
NCI-H23 = tested on: NCI-H23
NCI-H460 = tested on: NCI-H460
SN12C = tested on: SN12C
SNB-75 = tested on: SNB-75
U-251 = tested on: U-251
UACC-62 = tested on: UACC-62
HL-60 = tested on: HL-60
NCI-H226 = tested on: NCI-H226

Structure (SMILES)	GI50 (EKVX)	GI50 (HOP-62)	GI50 (HT-29)	GI50 (IGROV-1)	GI50 (LOX IMVI)	GI50 (MOLT-4)	GI50 (NCI-H23)	GI50 (NCI-H460)	GI50 (SN12C)	GI50 (SNB-75)	GI50 (U-251)	GI50 (UACC-62)	GI50 (HL-60)	GI50 (NCI-H226)
CCc1ccc(/N=C\c2cc(OC)c(OC)c(OC)c2)cc1	> 100 µM (inactive)	> 100 µM (inactive)	> 100 µM (inactive)	> 100 µM (inactive)	20.9 µM (inactive)	> 100 µM (inactive)	> 100 µM (inactive)	37.7 µM (inactive)	> 100 µM (inactive)	> 100 µM (inactive)	> 100 µM (inactive)	> 100 µM (inactive)		
O=C(/C=C/c1c(O)ccc2ccccc12)c1ccccc1	> 100 µM (inactive)	> 100 µM (inactive)	15.7 µM (inactive)	> 100 µM (inactive)	19.3 µM (inactive)	> 100 µM (inactive)	95.7 µM (inactive)	> 100 µM (inactive)	> 100 µM (inactive)	0.413 µM (active)	> 100 µM (inactive)	> 100 µM (inactive)	35.7 µM (inactive)	> 100 µM (inactive)
CCOC(=N)CC(=O)Nc1ccc(Cl)cc1	> 100 µM (inactive)	> 100 µM (inactive)	> 100 µM (inactive)	> 100 µM (inactive)	> 100 µM (inactive)	> 100 µM (inactive)	> 100 µM (inactive)	> 100 µM (inactive)	> 100 µM (inactive)	> 100 µM (inactive)	> 100 µM (inactive)	> 100 µM (inactive)	> 100 µM (inactive)	> 100 µM (inactive)
O=C(O)CCC(=O)N1C/C(=C\c2ccccc2)C(=O)/C(=C/c2ccccc2)C1	5.02 µM (inactive)	16.8 µM (inactive)	2.23 µM (inactive)	3.45 µM (inactive)	1.68 µM (inactive)	2.34 µM (inactive)	3.64 µM (inactive)	8.22 µM (inactive)	1.93 µM (inactive)	6.82 µM (inactive)	1.78 µM (inactive)	1.26 µM (inactive)	2.21 µM (inactive)	18 µM (inactive)
CCC1CCc2c(OC)ccc(OCC(=O)O)c2C1=O (centres undefined)	> 100 µM (inactive)	> 100 µM (inactive)		> 100 µM (inactive)	> 100 µM (inactive)	> 100 µM (inactive)	> 100 µM (inactive)		> 100 µM (inactive)	> 100 µM (inactive)	> 100 µM (inactive)	> 100 µM (inactive)	> 100 µM (inactive)	> 100 µM (inactive)
CCCC(=O)OC[n+]1ccc2c(C)c3[nH]c4ccccc4c3c(C)c2c1		0.914 µM (active)	> 100 µM (inactive)	0.51 µM (active)	0.341 µM (active)	0.0661 µM (active)	0.064 µM (active)	0.0208 µM (active)	0.404 µM (active)	> 100 µM (inactive)	0.498 µM (active)	1.5 µM (inactive)	1.68 µM (inactive)	1.11 µM (active)
C/C(=N/NC(=O)c1ccccc1O)c1ccc(/C(C)=N\NC(=O)c2ccccc2O)c2nc3cc(C)c(C)cc3nc12	> 100 µM (inactive)	> 100 µM (inactive)	> 100 µM (inactive)	> 100 µM (inactive)	> 100 µM (inactive)	> 100 µM (inactive)	> 100 µM (inactive)	> 100 µM (inactive)	> 100 µM (inactive)	38.7 µM (inactive)	> 100 µM (inactive)	> 100 µM (inactive)		> 100 µM (inactive)
CCOC(=O)Nn1c(C)cc(C(=O)OC)c1C	> 100 µM (inactive)	> 100 µM (inactive)	> 100 µM (inactive)	> 100 µM (inactive)	> 100 µM (inactive)	> 100 µM (inactive)	> 100 µM (inactive)	> 100 µM (inactive)	> 100 µM (inactive)	> 100 µM (inactive)	> 100 µM (inactive)	> 100 µM (inactive)	> 100 µM (inactive)	> 100 µM (inactive)
c1ccc(C2C3=C(Nc4ncnn42)c2ccccc2C3)cc1 (centres undefined)	87.5 µM (inactive)	31.7 µM (inactive)	4.3 µM (inactive)	86.1 µM (inactive)	15.6 µM (inactive)	17.4 µM (inactive)	15 µM (inactive)	12.1 µM (inactive)	35.3 µM (inactive)	83.9 µM (inactive)	2.93 µM (inactive)	4.99 µM (inactive)	5.07 µM (inactive)	
Cc1ccc(NC(=O)C(=O)C2C(=O)NC(=O)NC2=O)cc1C	> 100 µM (inactive)	> 100 µM (inactive)	> 100 µM (inactive)	> 100 µM (inactive)	> 100 µM (inactive)	> 100 µM (inactive)	> 100 µM (inactive)	> 100 µM (inactive)	> 100 µM (inactive)	> 100 µM (inactive)	> 100 µM (inactive)	> 100 µM (inactive)	> 100 µM (inactive)	> 100 µM (inactive)
COC(=O)c1onc(-c2c(OC)cc(OC)cc2OC)c1C(=O)OC	> 100 µM (inactive)	> 100 µM (inactive)	> 100 µM (inactive)	> 100 µM (inactive)	> 100 µM (inactive)	> 100 µM (inactive)	> 100 µM (inactive)	> 100 µM (inactive)		> 100 µM (inactive)	> 100 µM (inactive)	> 100 µM (inactive)	> 100 µM (inactive)	> 100 µM (inactive)
C[N+]1(C)C/C(=C\c2ccncc2)C(=O)/C(=C/c2ccncc2)C1	> 100 µM (inactive)	> 100 µM (inactive)	> 100 µM (inactive)	> 100 µM (inactive)	> 100 µM (inactive)	> 100 µM (inactive)		> 100 µM (inactive)	> 100 µM (inactive)	> 100 µM (inactive)	85.5 µM (inactive)	> 100 µM (inactive)	24.8 µM (inactive)	
Nc1c(-c2nc3ccccc3s2)[n+]([O-])c2ccccc2[n+]1[O-]	51.6 µM (inactive)	22.5 µM (inactive)	37 µM (inactive)	29.9 µM (inactive)		32.7 µM (inactive)	20 µM (inactive)	28.1 µM (inactive)		26.7 µM (inactive)	38.9 µM (inactive)	33.8 µM (inactive)	29.9 µM (inactive)	54.7 µM (inactive)
CC(=O)Nc1ccc(/C=c2\sc3nnc(-c4cccnc4)n3c2=O)cc1	18.9 µM (inactive)	21.8 µM (inactive)	18.5 µM (inactive)	16.9 µM (inactive)	16.5 µM (inactive)	19.7 µM (inactive)	15.8 µM (inactive)	16.3 µM (inactive)	14.4 µM (inactive)	22.2 µM (inactive)	17.8 µM (inactive)	13.4 µM (inactive)	16.4 µM (inactive)	49.7 µM (inactive)
Cc1noc(C)c1CCCOC1COc2ccccc2OCCOCCOc2ccccc2OC1	> 100 µM (inactive)	> 100 µM (inactive)	> 100 µM (inactive)	> 100 µM (inactive)	> 100 µM (inactive)		> 100 µM (inactive)		> 100 µM (inactive)	65.8 µM (inactive)	> 100 µM (inactive)	27.5 µM (inactive)	> 100 µM (inactive)	> 100 µM (inactive)
COc1ccc(C(=O)N2c3ccccc3N(C)n3cccc3C2CC(=O)O)cc1 (centres undefined)	> 100 µM (inactive)	> 100 µM (inactive)	> 100 µM (inactive)	> 100 µM (inactive)	> 100 µM (inactive)	> 100 µM (inactive)	> 100 µM (inactive)	> 100 µM (inactive)	> 100 µM (inactive)	> 100 µM (inactive)		> 100 µM (inactive)	> 100 µM (inactive)	> 100 µM (inactive)
O=C1c2ccc(O)cc2C(=O)c2ccc(O)cc21	67.3 µM (inactive)	30.6 µM (inactive)	> 100 µM (inactive)	48.3 µM (inactive)	58.1 µM (inactive)	31.6 µM (inactive)	59.2 µM (inactive)	53.2 µM (inactive)	73.5 µM (inactive)	29.6 µM (inactive)	49.4 µM (inactive)	56.8 µM (inactive)	70.5 µM (inactive)	
COC[C@H](C)/N=C/N1CCc2ccccc2C1(Cc1ccccc1)Cc1ccccc1	29.9 µM (inactive)	24.8 µM (inactive)	5.07 µM (inactive)	68.1 µM (inactive)		10.4 µM (inactive)	17.2 µM (inactive)	12 µM (inactive)	10.3 µM (inactive)	17.8 µM (inactive)	13.8 µM (inactive)	26.9 µM (inactive)	6.17 µM (inactive)	18.5 µM (inactive)
Cc1cc2cc(Cl)ccc2nc1C(=O)c1ccccc1		43.1 µM (inactive)		> 100 µM (inactive)	> 100 µM (inactive)	> 100 µM (inactive)	> 100 µM (inactive)		> 100 µM (inactive)	21.3 µM (inactive)	> 100 µM (inactive)	> 100 µM (inactive)		> 100 µM (inactive)
Cc1cc2c(c(N)c1C)C(=O)c1ccccc1C2=O		13.9 µM (inactive)	49.5 µM (inactive)	12.6 µM (inactive)	17.7 µM (inactive)	> 100 µM (inactive)		34.5 µM (inactive)	49.1 µM (inactive)	12.5 µM (inactive)	20.3 µM (inactive)	5.12 µM (inactive)	> 100 µM (inactive)	
CCOC(=O)CC1=N/C(=N/c2cc(Cl)ccc2Cl)SC1	> 100 µM (inactive)	> 100 µM (inactive)	54.1 µM (inactive)	> 100 µM (inactive)	70.5 µM (inactive)		> 100 µM (inactive)	> 100 µM (inactive)	> 100 µM (inactive)	78 µM (inactive)	> 100 µM (inactive)	> 100 µM (inactive)	> 100 µM (inactive)	> 100 µM (inactive)
